Measured values reported in PubChem BioAssay (NCI).
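A five-concentration, 48-hour dose response in 96-well plates underlies each endpoint, interpolated linearly between surrounding concentrations. GI50: concentration for 50% inhibition of growth. TGI marks complete inhibition of growth.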

Legend:
Test in all cases: NCI tumour cell line growth inhibition, 48 h
HCT-15 colon = tested on: HCT-15 colon
HOP-62 NSCLC = tested on: HOP-62 NSCLC
OVCAR-5 ovarian = tested on: OVCAR-5 ovarian
SF-268 CNS = tested on: SF-268 CNS
SR leukemia = tested on: SR leukemia
SW-620 colon = tested on: SW-620 colon
UACC-257 melanoma = tested on: UACC-257 melanoma
OVCAR-4 ovarian = tested on: OVCAR-4 ovarian
U251 CNS = tested on: U251 CNS
NCI-H522 lung = tested on: NCI-H522 lung

Compound	TGI (HCT-15 colon) [µM]	TGI (HOP-62 NSCLC) [µM]	TGI (OVCAR-5 ovarian) [µM]	TGI (SF-268 CNS) [µM]	TGI (SR leukemia) [µM]	TGI (SW-620 colon) [µM]	TGI (UACC-257 melanoma) [µM]	TGI (OVCAR-4 ovarian) [µM]	TGI (U251 CNS) [µM]	TGI (NCI-H522 lung) [µM]	GI50 (HOP-62 NSCLC) [µM]	GI50 (OVCAR-5 ovarian) [µM]	GI50 (UACC-257 melanoma) [µM]
CCN(CC)C(=O)Cn1c2c(c3ccccc31)CCCC2	> 100	> 100	> 100	> 100	> 100	> 100	> 100	–	–	–	–	–	–
COc1ccc2cc(C(C)C(=O)N3C(=O)OCC3(C)C)ccc2c1 (configuration not stated)	> 100	> 100	> 100	> 100	> 100	> 100	> 100	> 100	> 100	–	–	–	–
CC(C)CCOC(=O)NC(Nc1ccc(F)cc1)(C(F)(F)F)C(F)(F)F	> 100	> 100	> 100	> 100	25.4	> 100	> 100	–	> 100	69.4	–	–	–
CC(C)(C)C1=C(Br)C(O)(C(C)(C)C)OP1(=O)c1ccccc1 (configuration not stated)	> 100	> 100	> 100	> 100	–	> 100	> 100	> 100	> 100	> 100	–	–	–
Cn1c(=O)sc2cc(C(=S)N3CCCCC3)ccc21	> 100	> 100	> 100	> 100	> 100	> 100	> 100	–	> 100	–	–	–	–
CCCCN(C)/N=N/c1nc[nH]c1C(N)=O	> 100	–	> 100	> 100	–	> 100	> 100	> 100	> 100	> 100	–	–	–
O=C(OCc1ccccc1)N1CCNCCNCCN(C(=O)OCc2ccccc2)CCNCC1	50.1	> 100	> 100	–	34.2	32.8	32	> 100	33.7	31.4	–	–	–
CCOC(=O)c1cc(Br)c(-c2onc(C)c2Br)[nH]1	> 100	49.9	> 100	> 100	> 100	> 100	> 100	> 100	42.6	–	–	–	–
Clc1cc(Cl)ncn1	> 100	> 100	> 100	> 100	> 100	> 100	–	> 100	> 100	> 100	–	–	–
Cc1c2ccncc2c(C)c2c1[nH]c1ccc(OCCN(C)C)cc12	0.706	1.95	1.59	0.919	–	0.406	2.07	0.368	0.946	1.16	–	–	–
COC(=O)Cn1cnc2c(Cl)nc(Nc3ccccc3)nc21	80.4	> 100	–	–	> 100	> 100	> 100	> 100	> 100	–	–	–	–
CCN(CC)CC1CCCCN1CC(=O)N1CC(C)C(=O)Nc2ccccc21 (configuration not stated)	> 100	> 100	> 100	> 100	> 100	> 100	> 100	> 100	> 100	–	–	–	–
CCOc1cc2c(cc1O)C(O)C[C@@H]1[C@@H]2CC[C@]2(C)[C@@H](O)CC[C@@H]12 (some centres not stated)	> 100	> 100	> 100	> 100	> 100	> 100	> 100	> 100	–	0.95	–	–	–
CCN(CC)C(=O)CCN1CC1	> 10	> 10	> 10	> 10	> 10	–	> 10	> 10	> 10	> 10	–	–	–
CC(C)=CCC[C@@H](C)C1=C(O)C(Nc2ccccc2I)=C(C)C(=O)C1=O	> 75	23.1	> 75	> 69.3	21.4	> 75	74.3	> 75	> 75	–	–	–	–
CCSC1=CC2(O)N(CCc3ccc(OC)c(OC)c3)C(=O)CC2(C(=O)OC)CC1=O (configuration not stated)	72.7	34.7	> 100	–	58.6	59	34.6	> 100	51.7	–	–	–	–
O=c1[nH]c(=O)n(C2OC(CO)C(O)C2O)cc1OCCCc1ccccc1 (configuration not stated)	> 100	> 100	> 100	> 100	> 100	> 100	> 100	> 100	–	–	–	–	–
O=C(O)/C=C\C(=O)Nn1c(Cc2ccc(Cl)cc2)n[nH]c1=O	> 100	> 100	> 100	> 100	> 100	–	> 100	> 100	> 100	> 100	–	–	–
O=C(c1ccc(Cl)cc1)N1CCN=C1c1cc2ccccc2c2ccccc12	31.3	33.3	35.1	31.9	59	32.2	31.8	27.7	30.5	–	–	–	–
O=C1/C(=C/c2cccc3ccccc23)CCc2ccc([N+](=O)[O-])cc21	> 100	> 100	> 100	> 100	–	> 100	–	–	39.4	–	–	–	–
S=C1SC(=Nc2ccccc2)C(=Nc2ccccc2)N1c1ccc2ccccc2c1	> 100	> 100	> 100	–	> 100	–	–	> 100	> 100	> 100	–	–	–
CC1(C)C=C(/C=N/Nc2ccccc2)C(C#N)=C(O)C1(C#N)C#N	–	> 100	> 100	> 100	> 100	> 100	> 100	> 100	–	> 100	–	–	–
COc1cc2c(c(OC)c1OC)-c1ccc(SC)c(=O)cc1[C@@H](NCc1ccc([N+](=O)[O-])cc1)CC2	0.0324	> 100	> 100	–	–	> 100	> 100	–	–	0.0119	0.429	> 100	0.0771
N/C(=N\N=C\c1ncccc1O)NO	> 100	> 93	> 100	90.8	–	> 100	> 100	> 100	> 100	87.9	–	–	–
